# Reference: patent publication US5100591A, “Process for preparing lipid microparticles” (Medgenix Group S.A., priority 1989, dated 1992)
# How the values were obtained:
# [1] = Stability of amphotericin B solutions by HPLC analysis; conditions: for Stability in methanol solution in acid medium: topical grade
# Method: The stability of the amphotericin B solutions was recorded by HPLC analysis using a reversed-phase column (C18 Bondapak, 25×0.5 cm, Waters Associates). A CH3 CN/10 mM acetate buffer, pH 7, system (39:61) was used as eluent. UV recording was performed at 404 and 362 nm. The flow rate was 2 ml/min. The retention time (RT) of amphotericin B is 9.5 minutes. Results were expressed as the percentage of the peak area.
# [2] = acetic acid and ammonia NH3 in methanol, two equivalents, 5 mg/ml in CH3OH
smiles,measurement,setting,value
C[C@@H]1[C@H](O)[C@@H](C)/C=C/C=C/C=C/C=C/C=C/C=C/C=C/[C@H](O[C@@H]2O[C@H](C)[C@@H](O)[C@H](N)[C@@H]2O)C[C@@H]2O[C@](O)(C[C@@H](O)C[C@@H](O)[C@H](O)CC[C@@H](O)C[C@@H](O)CC(=O)O[C@H]1C)C[C@H](O)[C@H]2C(=O)O [amphotericin B],Stability of neutral CH3OH solution,"[1]; 0.1 mg/ml, 4° C.",stable for several days
same,Effect of neutralization with methanolic HCl on stability,[1]; basic CH3OH solution,no effect on the stability
same,Effect of addition of an excess of NaOH on stability,"[1]; excess of NaOH, methanolic solution",does not affect the stability
same,Degradation in an acid medium,"[1]; i.v. grade, methanol, one equivalent HCl, concentration greater than 2 mg/ml",increases greatly
same,Stability in methanolic NaOH solution,"[1]; i.v. grade, one equivalent NaOH, up to 5 mg/ml",good stability
same,Stability in methanol solution in acid medium,"[1]; 0.1 mg/ml, 1.5 eq. HCl",stable
same,Stability in methanol solution in acid medium,"[1]; 5 mg/ml, acid medium (HCl)",degraded
same,solubility,"physchem; ch3oh + 1.0 eq. hcl, organic solvent or mixture, Solubility of i.v. grade amphotericin B",5000 µg/mL
same,solubility,"physchem; ch3oh + 1.0 eq. naoh, organic solvent or mixture, Solubility of i.v. grade amphotericin B",5000 µg/mL
same,solubility,"physchem; ch3oh + 1.5 eq. hcl, organic solvent or mixture, Solubility of topical grade amphotericin B",5000 µg/mL
same,solubility,"physchem; ch3oh + 1.5 eq. naoh, organic solvent or mixture, Solubility of topical grade amphotericin B",5000 µg/mL
same,solubility,"physchem; ch3oh, acid, organic solvent or mixture, Solubility of amphotericin B",3000 to 5000 µg/mL
same,solubility,"physchem; ch3oh, basic, organic solvent or mixture, Solubility of amphotericin B",2000 to 3000 µg/mL
same,solubility,"physchem; ch3oh, neutral, organic solvent or mixture, Solubility of amphotericin B",200 to 400 µg/mL
same,solubility,"physchem; ch3oh, organic solvent or mixture, Solubility of i.v. grade amphotericin B",150 µg/mL
same,solubility,"physchem; ch3oh, organic solvent or mixture, Solubility of topical grade amphotericin B",130 µg/mL
same,solubility,"physchem; dimethylacetamide, organic solvent or mixture, Solubility of amphotericin B in DMA",6000 µg/mL
same,solubility,"physchem; dimethylformamide, acid, organic solvent or mixture, Solubility of amphotericin B",60000 to 80000 µg/mL
same,solubility,"physchem; dimethylformamide, neutral, organic solvent or mixture, Solubility of amphotericin B",2000 to 4000 µg/mL
same,solubility,"physchem; h2o, acid, Solubility of amphotericin B",100 µg/mL
same,solubility,"physchem; h2o, basic, Solubility of amphotericin B",100 µg/mL
same,Dissolution of amphotericin B,[2],do not dissolve
